Laboratory results taken from patent US11083197B2, “Herbicidal composition comprising chromone derivatives and a method for weed control” (INVESTIGACIONES BIOLÓGICAS EN AGROQUÍMICOS ROSARIO S.A., priority 2015, dated 2021).
Where two headings read alike, the source gives them in different places.

Tests used:
[1] = system: ryegrass (Lolium multiflorum); assay: Dose-response bioassay with ryegrass; assay type: in vivo; settings: 168 h, 7 days
Protocol: (§1) A filter paper and 5 lettuce or 10 mg of creeping bentgrass seeds were placed in each well of a 24-well plate. Stock solutions (10×) of test compounds were prepared in acetone. 180 μl of distilled water were added to each well together with 20 μl of stock solution or acetone in solvent control. Final concentration of acetone was 10% v/v. Plates were sealed with Parafilm, and incubated at 26° C. in a growth chamber set at 173 μmol m^−2 s^−1 continuous photosynthetically active radiation. Phytotoxic activity was qualitatively evaluated by visually comparing germination in each well with solvent control at 7 days. A qualitative estimation of phytotoxicity was obtained by using a rating scale of 0 to 5, where 0 was no effect, and 5 was no germination of seeds. This procedure was also used for testing the phytotoxicity of pure compounds on ryegrass. On this experiment 12-well plates were used. 10 seeds were placed per well and final volume was 300 μl in each one. During dose-response bioassays used for IC50 determination, germination percentage and length of plants were measured at 7 days in order to determine the concentration required for 50% germination and growth inhibition (IC50). All experiments were done in triplicate.
Using method described in Example 1, compounds of Formula III and IV above were tested against lettuce and ryegrass.
The percentage of germination and length of plants were determined at 7 days. Data represents means of three replicates±SD. The IC50 values, for both germination and growth inhibition by compounds III and IV on lettuce and ryegrass, were obtained from estimated parameters in the regression curves.
Statistical Analysis. Data from dose-response experiments were analyzed by a log-logistic model^37-38 using the dose-response curve module^39 of R software version 2.2.1.^40 Concentrations required for 50% germination or growth inhibition relative to control (IC50 values) were obtained from estimated parameters in the regression curves. The standard error (SE) of each estimation is provided. Data from phytotoxicity bioassays in the laboratory and greenhouse, ROS and cell death quantifications were analyzed by ANOVA using the InfoStat statistical software version 2015,^41 and Scheffe's test was employed to compare the means at α=0.05.

[2] = system: A. cepa root meristem cells; assay: Effect on cell division (mitotic index analysis); assay type: cell-based, Allium cepa; settings: for inhibition of cell division: 0 to 1000 μM; for reversibility of inhibition of cellular division: 100 μM, seeds washed at 3 days; for proportion of cells with abnormal configurations: chromosome aberrations, nuclear abnormalities, micronuclei
Protocol: Onion seeds (Allium Cepa L. Evergreen Longwhite Bunching, Burpee & Co, 2012, EE.UU) germination was carried out for 7 days with a 14-h photoperiod in 9-cm-diameter Petri dishes on a filter paper disk that was moistened with a dilution (2.5 mL) of test compound or control. Stock solutions of test compounds (100×) were prepared in acetone, and aliquots were diluted in distilled water to get the final concentration. The control consisted of water with the same proportion of acetone (1% v/v) applied in the treatments.
At 7 days of incubation, samples were processed for mitotic index analysis according to Armbruster et al.^25 Twenty root tips (1-cm sections) were fixed in glacial acetic acid:absolute ethanol (1:3 v/v) for 30 min. The segments were incubated with 5 N HCl at 25° C. for 1 h, and washed several times with distilled water. After that, segments were stained with Schiff's reagent for 45 min in the dark at 25° C. Stained meristematic regions were identified as purple tips. The root segments were transferred with tweezers to a drop of 45% acetic acid in water on a microscope slide. The tips were cut with a razor blade, and a cover slip was carefully placed over the tips and gently squashed by applying slight and constant pressure directly over the tissues. The edge of the cover slip was sealed with nail polish to delay the evaporation of acetic acid. The mitotic index was calculated by tallying the cells in various stages of mitosis. At least 1,000 cells/slide and in triplicate (3,000 cells per treatment) were counted for suitable statistical analysis of data. An Olympus BX60 microscope (Olympus, Center Valley) was used, and cells with abnormal mitotic configurations were counted as a separate class.
This procedure was slightly modified to evaluate if cell division inhibition caused by furanochromones was reversible. For this experiment onion seeds were incubated with solutions containing compounds of formulas III and IV for 3 days. After this period, all seeds were washed three times with distilled water and placed in new Petri dishes on moistened filter paper disks with distilled water (Wash+treatment). Seeds were then incubated for 4 more days, after which a mitotic index analysis was performed. As a reference to compare results, another set of onion seeds was kept with test compounds or control for 7 days (Wash−treatment) before analysis.

[3] = system: creeping bentgrass (A. stolonifera); assay: Germination bioassay with creeping bentgrass; assay type: in vivo, Agrostis stolonifera; set-up: key to Phytotoxicity at day 7, Creeping bentgrass: 0 = no effect; 5 = no growth or germination; settings: for Phytotoxicity at day 7, Creeping bentgrass: 1 mM, 24-well plates, rating scale of 0 to 5; for inhibition at 1000 µg/mL: Agrostis stolonifera, 168 h, creeping bentgrass, 1 mg/mL, day 7; for creeping bentgrass germination: fractions at 1 mg/mL
Protocol: DCM extract of flowers of A. visnaga (1.6 g) was divided in two 800 mg halves and each one was subjected to column chromatography using an Isolera One system (Biotage), equipped with UV detector (302 and 365 nm) and automatic fraction collector. Separation was performed by normal-phase chromatography column using a SNAP Cartridge KP-Sil (37×157 mm, 50 μm irregular silica, 100 g, Biotage) and a pre-packaged SNAP Samplet Cartridge KP-Sil (37×17 mm, Biotage). A full gradient of hexane:ethyl acetate was used for elution, from 100:0 to 0:100 over 3000 ml. Flow was 40 ml/min and 25 ml fractions were collected. Equal fractions were combined based on similarities on their TLC and chromatogram profiles providing nineteen fractions named I to XIX. All fractions were evaluated for their phytotoxicity on germination bioassay of lettuce (L. sativa) and creeping bentgrass (A. stolonifera).
as §1

cucumber cotyledon disks = assay: Detection and measurement of reactive oxygen species (DCFDA); assay type: cell-based; settings: 300 μM; for ROS levels: 16 h darkness then high light intensity 5 h; for ROS generation: complete darkness for 30 h
Protocol: ROS cellular localization was determined by confocal microscopy using the fluorescent probe 2′,7′-dichlorofluorescein diacetate (DCFDA). Cucumber cotyledon disks (1 cm) were treated as described for the electrolyte leakage assay. Five disks were placed in 5 cm-Petri plates and exposed to different dilutions of compounds of formulas III and IV (0, 100 and 300 μM). Disks were incubated in darkness for 16 h before exposure to high light intensity for 5 h, or in darkness for 30 h. As positive control, disks were exposed to the same solvent as treated tissues but with 10 mM hydrogen peroxide (H2O2) for 30 min in the light. After each treatment, they were vacuum-infiltrated in the dark with 50 μM DCFDA in 10 mM Tris-HCl pH 7.5, and ROS were visualized in an Eclipse TE-2000-E2 Nikon confocal microscope with excitation at 488 nm and emission at 515/530 nm. Green fluorescence intensities were quantified using the image processing package Fiji of ImageJ software.

[4] = read-out: IC50(μM) ± SE to inhibit germination
[5] = read-out: IC50(μM) ± SE to inhibit growth

Structure (SMILES) | IC50 [1, 4] [µM] | IC50 [1, 5] [µM] | inhibition of cell division ([2]; 7 days) | reversibility of inhibition of cellular division [2] | proportion of cells with abnormal configurations [2] | Phytotoxicity at day 7, Creeping bentgrass [3] | inhibition at 1000 µg/mL [3] [%] | creeping bentgrass germination [3] | ROS levels (cucumber cotyledon disks) | ROS generation (cucumber cotyledon disks) | inhibition of onion cell division ([2]; 300 μM, 7 days)
COc1c2occc2c(OC)c2c(=O)cc(C)oc12 [Formula III, 4,9-dimethoxy-7-methyl-5H-furo[3,2-g]chromen-5-one] | 637 ± 112 | 244 ± 37 | inhibited cell division in a dose-dependent manner | irreversible | higher than in the control | 5 | 100 | completely inhibited | significantly higher than in the control | not detected | –
COc1c2ccoc2cc2oc(C)cc(=O)c12 [Formula IV, 4-methoxy-7-methyl-5H-furo[3,2-g]chromen-5-one] | 502 ± 115 | 214 ± 23 | inhibited cell division in a dose-dependent manner | irreversible | higher than in the control | 5 | 100 | completely inhibited | significantly higher than in the control | not detected | completely inhibited
